Paper PMC10141580, “Cyclic Dichalcogenides Extend the Reach of Bioreductive Prodrugs to Harness Thiol/Disulfide Oxidoreductases: Applications to seco-Duocarmycins Targeting the Thioredoxin System” (ACS Central Science, 2023)
pIC50: −log10 of the molar value. Like-named read-outs stand apart in the source and are kept apart here.

Test system: panel of 140 standard cancer cell lines
Assay: ProliFiler-140 cancer cell line screen (CellTiterGlo, 72 h)
Format: cell-based
Settings: for IC50: read-out: IC50 [M] (ProliFiler-140); for pIC50: read-out: IC50
Description: Incubations were performed for 72 h before automated viability readout with CellTiterGlo (Figure 8).
End of Figure S11 (part 5 of 5): ProliFiler-140 cancer cell line screening for cytotoxicity of the prodrugs.
8-data-point dose response curves from CellTiter-Glo® viability readout.
ProliFiler-140 cell line panel part V

IC50 (A172 (Brain), listed as Dox): 9.4e-08 M
IC50 (A375 (Skin), listed as Dox): 4.8e-08 M
IC50 (A427 (Lung), listed as Dox): 6.56e-08 M
IC50 (A431 (Skin), listed as Dox): 1.7e-07 M
IC50 (A549 (Lung), listed as Dox): 3.11e-07 M
IC50 (A2058 (Skin), listed as Dox): 3.73e-08 M
IC50 (AsPC-1 (Pancreas), listed as Dox): 1.16e-06 M
IC50 (BT-20 (Breast), listed as Dox): 2.35e-07 M
IC50 (BxPC-3 (Pancreas), listed as Dox): 2.8e-07 M
IC50 (COR-L279 (Lung), listed as Dox): 7.88e-08 M
IC50 (COV434 (Ovary), listed as Dox): 6.97e-08 M
IC50 (COV434, COV434 (Ovary)): 7e-08 M
IC50 (Caki-1 (Kidney), listed as Dox): 3.4e-07 M
IC50 (Caki-2 (Kidney), listed as Dox): 1e-06 M
IC50 (Calu-6 (Lung), listed as Dox): 7.7e-07 M
IC50 (DU-145 (Prostate), listed as Dox): 1.52e-07 M
IC50 (DV90 (Lung), listed as Dox): 1.95e-08 M
IC50 (EFM-19 (Breast), listed as Dox): 4.73e-07 M
IC50 (EFM-192A (Breast), listed as Dox): 7.35e-07 M
IC50 (EFM-192A, EFM-192A (Breast)): 7.3e-07 M
IC50 (EFO-27 (Ovary), listed as Dox): 2.93e-07 M
IC50 (H4 (Brain), listed as Dox): 8.2e-08 M
IC50 (H4 (Brain)): 8.18e-08 M
IC50 (H1299 (Lung), listed as Dox): 2.2e-07 M
IC50 (H2228 (Lung), listed as Dox): 5.7e-08 M
IC50 (HCC202 (Breast), listed as Dox): 7.65e-07 M
IC50 (HCC202, HCC202 (Breast)): 7.6e-07 M
IC50 (HCC827 (Lung), listed as Dox): 3.48e-07 M
IC50 (HCC 1569 (Breast), listed as Dox): 7.01e-07 M
IC50 (HCT-15 (Colon), listed as Dox): 6.4e-07 M
IC50 (HEC-1-A (Endometrium), listed as Dox): 3.27e-07 M
IC50 (HEC-1-B (Endometrium), listed as Dox): 2.37e-06 M
IC50 (HL-60 (Blood), listed as Dox): 2.65e-08 M
IC50 (HT-29 (Colon), listed as Dox): 3.69e-07 M
IC50 (HeLa (Cervix), listed as Dox): 8e-08 M
IC50 (Hep3B2.1-7 (Liver), listed as Dox): 5.32e-07 M
IC50 (Hep3B2.1-7 (Liver)): 5.3e-07 M
IC50 (Homo sapiens, 786-0, 786-O (Kidney)): 1.15e-07 M
pIC50 (Homo sapiens, 786-0, 786-O): 6.96
IC50 (Homo sapiens, A 172, A172 (Brain)): 9.38e-08 M
IC50 (Homo sapiens, A498, A498 (Kidney)): 3.22e-07 M
pIC50 (Homo sapiens, A498, A498): 6.49
pIC50 (Homo sapiens, A549, A549): 6.51
IC50 (Homo sapiens, A2058, A2058 (Skin)): 3.7e-08 M
IC50 (Homo sapiens, A2780, A2780 (Ovary)): 1.8e-08 M
IC50 (Homo sapiens, A-375, A375 (Skin)): 4.76e-08 M
IC50 (Homo sapiens, A-427, A427 (Lung)): 6.6e-08 M
IC50 (Homo sapiens, A-431, A431 (Skin)): 1.74e-07 M
IC50 (Homo sapiens, ASPC1, AsPC-1 (Pancreas)): 1.2e-06 M
IC50 (Homo sapiens, BT-20, BT-20 (Breast)): 2.3e-07 M
IC50 (Homo sapiens, BXPC-3, BxPC-3 (Pancreas)): 2.78e-07 M
IC50 (Homo sapiens, CAKI-1, Caki-1 (Kidney)): 3.39e-07 M
IC50 (Homo sapiens, CAKI-2, Caki-2 (Kidney)): 1.03e-06 M
IC50 (Homo sapiens, COR-L279, COR-L279 (Lung)): 7.9e-08 M
IC50 (Homo sapiens, Calu-6, Calu-6 (Lung)): 7.69e-07 M
IC50 (Homo sapiens, DLD-1, DLD-1 (Colon)): 1.37e-07 M
IC50 (Homo sapiens, DU-145, DU-145 (Prostate)): 1.5e-07 M
pIC50 (Homo sapiens, DU-145, DU-145): 6.82
Compound: COc1cccc2c1C(=O)c1c(O)c3c(c(O)c1C2=O)C[C@@](O)(C(=O)CO)C[C@@H]3O[C@H]1C[C@H](N)[C@H](O)[C@H](C)O1 [doxorubicin, reference compound]
